Experimental data from BindingDB's records for doi:10.1021/ja0446404 (Yale University, 2005).

These compounds were tested against Bcl-2-like protein 1 (Homo sapiens, UniProt Q07817) (assay: Fluorescence Polarization Assay). Conditions: not given.
Protocol: Fluorescence polarization experiments were conducted on a Photon Technology International instrument using a 0.3 cm path length cuvette. Spectra were measured at 25 deg C using 10.0 nm slit widths. Excitation at 495 nm was used for the fluorescein-containing peptide Fl-Bak and the emission maximum at 535 nm was monitored. Polarization measurements were recorded upon titration of inhibitors at varying concentrations into a solution of Fl-Bak and Bcl-xL.

Chain of Bcl-2-like protein 1 (Q07817 whole entry): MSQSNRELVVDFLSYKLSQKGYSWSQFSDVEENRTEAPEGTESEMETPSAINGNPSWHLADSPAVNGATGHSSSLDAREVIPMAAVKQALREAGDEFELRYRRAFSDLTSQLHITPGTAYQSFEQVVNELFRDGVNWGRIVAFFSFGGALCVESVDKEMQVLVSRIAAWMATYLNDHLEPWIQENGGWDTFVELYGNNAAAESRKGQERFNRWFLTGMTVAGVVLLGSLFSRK

Compound | Ki [µM]
CC(C)C[C@H](NC(=O)c1ccc(C(=O)N(CC(C)C)[C@H](C(=O)O)C(C)C)cc1OC(C)C)C(=O)O [terephthalamide scaffold, 47] | 450
CC(C)C[C@H](NC(=O)c1ccc(C(=O)N[C@@H](CC(C)C)C(=O)O)c(Oc2ccc3ccccc3c2)c1)C(=O)O [terephthalamide scaffold, 50] | 82.1

Same assay, conditions: pH 7.4; 25 °C

Compound | Ki [µM]
COC(=O)[C@H](Cc1ccccc1)NC(=O)c1ccc(C(=O)N(C(C)C)C(C)C)cc1OC(C)C [terephthalamide scaffold, 25] | 10.9
COc1cc(C(=O)N(C(C)C)C(C)C)ccc1C(=O)N[C@@H](CC(C)C)C(=O)O [terephthalamide scaffold, 28] | 2.31
CC(C)C[C@H](NC(=O)c1ccc(C(=O)N(C(C)C)C(C)C)cc1Oc1ccc2ccccc2c1)C(=O)O [terephthalamide scaffold, 31] | 7.63
COC(=O)[C@H](CC(C)C)NC(=O)c1ccc(C(=O)N(C(C)C)C(C)C)cc1Oc1ccc([N+](=O)[O-])cc1 [terephthalamide scaffold, 32] | 13.2
COC(=O)[C@H](CC(C)C)NC(=O)c1ccc(C(=O)N(C)C)cc1OC(C)C [terephthalamide scaffold, 34] | 3.14
